Three compounds from patent publication US8293706B2, “Method for inhibiting release of hepatitis B virus from liver cells” (priority 2008, dated 2012) can be followed below.

The subject of data set [1] is lamivudine as well as adefovir dipovoxil resistant mutants (HBV). Kind of data set: HBVDR assay, panel of resistant mutants. The format is cell-based. The following applies: all tested resistant mutants.
The test system of another data set is HBV WT. Briefly: HBVDR assay, strain WT. It is filed as cell-based. The following applies: assay type HBVDR.
In a further data set the test system is HBV M204V. Kind of data set: HBVDR assay, strain M204V. It is filed as cell-based.
The test system of data set [2] is 2.2.15 cells (HBV-infected human HepG2 hepatocellular carcinoma cells). Briefly: Neutral red dye uptake toxicity in 2.2.15 cells. The settings on record: neutral red uptake (A510) 24 hours after last of 9 daily treatments. The format is cell-based. How it is done:
(§1) The ability of sLDLR to inhibit pathogenic viruses was tested by the NIAID Antimicrobial Acquisition and Coordinating Facility (AACF). Confluent cultures of 2.2.15 cells (HBV-infected human HepG2 hepatocellular carcinoma cells (ATCC HB-8065), constitutively shedding HBV virions) were maintained on 96-well flat-bottomed tissue culture plates in RPMI1640 medium with 2% fetal bovine serum (Korba & Gerin, Antivir. Res. 19:55-70, 1992). Cultures (6 per each of 4 test concentrations on two replicate plates) were treated with 9 consecutive daily doses of sLDL compounds. Medium was changed daily with fresh test compounds. HBV virion DNA in the culture medium was assessed 24 hours after the last treatment by quantitative blot hybridization. Uptake of neutral red dye (absorbance of internalized dye at […] [A510]) wa used to determine the relative level of toxicity 24 hours following the last treatment (Korba & Gerin, Antivir. Res. 19:55-70, 1992). Values are presented as a percentage of the average A510 values for 9 separate cultures of untreated cells maintained on the same plate. Cultures for the toxicity analyses were seeded at the same time with the identical pool of stock cells used for the antiviral analyses and maintained in an identical manner. A total of 3 cultures were treated with each concentration of test compound. […] CC50, EC50, EC90, and S.I. (CC50/EC90) were calculated. […]

Another data set relates to HBV M204I. Briefly: HBVDR assay, strain M204I. The format is cell-based.
The test system of the next data set is HBV L180M. Kind of data set: HBVDR assay, strain L180M. The format is cell-based.
The next data set deals with HBV LM/MV. Briefly: HBVDR assay, strain LM/MV. It is filed as cell-based.
The next data set concerns HBV. Briefly: Inhibition of HBV release from 2.2.15 cells (HBV virion DNA in culture medium, quantitative blot hybridization). The format is cell-based. The settings on record: for SI: S.I. (CC50/EC90). How it is done:
The ability of sLDLR to inhibit pathogenic viruses was tested by the NIAID Antimicrobial Acquisition and Coordinating Facility (AACF). Confluent cultures of 2.2.15 cells (HBV-infected human HepG2 hepatocellular carcinoma cells (ATCC HB-8065), constitutively shedding HBV virions) were maintained on 96-well flat-bottomed tissue culture plates in RPMI1640 medium with 2% fetal bovine serum (Korba & Gerin, Antivir. Res. 19:55-70, 1992). Cultures (6 per each of 4 test concentrations on two replicate plates) were treated with 9 consecutive daily doses of sLDL compounds. Medium was changed daily with fresh test compounds. HBV virion DNA in the culture medium was assessed 24 hours after the last treatment by quantitative blot hybridization. Uptake of neutral red dye (absorbance of internalized dye at […] [A510]) wa used to determine the relative level of toxicity 24 hours following the last treatment (Korba & Gerin, Antivir. Res. 19:55-70, 1992). Values are presented as a percentage of the average A510 values for 9 separate cultures of untreated cells maintained on the same plate. Cultures for the toxicity analyses were seeded at the same time with the identical pool of stock cells used for the antiviral analyses and maintained in an identical manner. A total of 3 cultures were treated with each concentration of test compound. […] CC50, EC50, EC90, and S.I. (CC50/EC90) were calculated. Lamivudine (3TC) was used as a positive assay control.

In a further data set the test system is HBV N236T. Kind of data set: HBVDR assay, strain N236T. The format is cell-based.
Data set [3] can be described thus: Neutral red dye uptake toxicity in 2.2.15 cells. The settings on record: human, neutral red uptake (A510) 24 hours after last of 9 daily treatments, positive assay control. The format is cell-based, human. How it is done: as §1
Setting [4] is: HBV strain M204V, assay type HBVDR, read-out: EC50.
[5] abbreviates: HBV strain M204V, assay type HBVDR, read-out: EC90.
The mark [6] stands for this setting: HBV strain M204I, assay type HBVDR, read-out: EC50.
The mark [7] stands for this setting: HBV strain M204I, assay type HBVDR, read-out: EC90.
The mark [8] stands for this setting: HBV strain L180M, assay type HBVDR, read-out: EC50.
[9] abbreviates: HBV strain L180M, assay type HBVDR, read-out: EC90.
Setting [10] is: HBV strain LM/MV, assay type HBVDR, read-out: EC50.
The mark [11] stands for this setting: HBV strain LM/MV, assay type HBVDR, read-out: EC90.
Setting [12] is: HBV virion DNA in culture medium 24 hours after last of 9 consecutive daily doses, 2.2.15 cells.
Where [13] appears, read: HBV strain N236T, assay type HBVDR, read-out: EC50.
[14] abbreviates: HBV strain N236T, assay type HBVDR, read-out: EC90.

Read-outs that look alike come from different tables or passages of the source. Where only a bound is given, the exact number is not on record here.

One may read the EC50 as the midpoint of the concentration-response curve. One may read the EC90 as the concentration needed for an effect of 90%. As a reminder, the CC50 is the concentration giving 50% cytotoxicity. As to sLDLR, the “activity against lamivudine and adefovir dipovoxil resistant mutants” value in [1] was “active against all tested lamivudine as well as adefovir dipovoxil resistant mutants”. The concentration giving a half-maximal response (EC50) in the data set with HBV WT stood at 0.9 µM; with HBV M204V (setting [4]) it was 1 µM; in the data set with HBV M204I (setting [6]), 1.1 µM; with HBV L180M (setting [8]), 0.8 µM; in the data set with HBV LM/MV (setting [10]), 1.2 µM; with HBV (setting [12]), 0.131 µg/mL. For the same compound, the EC50 in the data set on HBV N236T (setting [13]) stood at 1 µM. For the same compound, the EC90 in the data set with HBV WT came to 6 µM; with HBV M204V (setting [5]) it was 6.5 µM; in the data set with HBV M204I (setting [7]) it was 8 µM; in the data set on HBV L180M (setting [9]), 6.3 µM; in the data set on HBV LM/MV (setting [11]) it was 7.5 µM; in the data set on HBV (setting [12]), 0.922 µg/mL. Moreover, the EC90 in the data set on HBV N236T (setting [14]) was 8.2 µM. Besides, the CC50 in data set [2] is above 10 µg/mL. In the data set on HBV (2.2.15 cells), the “inhibition of formation of HBV virion from virus-infected cells relative to toxicity” value is “inhibited the formation of HBV virion from virus-infected cells at concentrations far below toxicity”. This compound also showed an SI in the data set with HBV (sLDLR columns) above 11.
As to `Nc1ccn([C@@H]2CS[C@H](CO)O2)c(=O)n1` [Lamivudine], the half-maximal effective concentration (EC50) in the data set on HBV WT (Hepatitis B virus) is 0.2 µM; with HBV M204V (Hepatitis B virus), above 100 µM; with HBV M204I (Hepatitis B virus), above 100 µM; in the data set with HBV L180M (Hepatitis B virus), 5.2 µM; in the data set with HBV LM/MV (Hepatitis B virus) it was above 100 µM; in the data set on HBV (Hepatitis B virus, 24 h), 0.045 µM. In the data set on HBV N236T (Hepatitis B virus), this compound returned an EC50 of 0.2 µM. Besides, the EC90 was 0.7 µM with HBV WT (Hepatitis B virus); above 100 µM with HBV M204V (Hepatitis B virus); above 100 µM in the data set with HBV M204I (Hepatitis B virus); 20 µM with HBV L180M (Hepatitis B virus); above 100 µM with HBV LM/MV (Hepatitis B virus); 0.146 µM with HBV (Hepatitis B virus, 24 h). In addition, in the data set on HBV N236T (Hepatitis B virus), it took 0.6 µM to reach the 90% level (EC90). In data set [3], the CC50 was 2310 µM. The compound further displayed an SI in the data set on HBV (Lamivudine columns) of 15178.
For the compound `CC(C)(C)C(=O)OCOP(=O)(COCCn1cnc2c(N)ncnc21)OCOC(=O)C(C)(C)C` [ADV, Adefovir Dipovoxil], the EC50 was 1.5 µM in the data set on HBV WT; 1.8 µM with HBV M204V (setting [4]); 1.3 µM in the data set on HBV M204I (setting [6]); 1.9 µM in the data set on HBV L180M (setting [8]); 1.3 µM with HBV LM/MV (setting [10]); 8.1 µM in the data set on HBV N236T (setting [13]). For the same compound, the concentration for an effect of 90% (EC90) with HBV WT turned out to be 6.5 µM; with HBV M204V (setting [5]), 7 µM; with HBV M204I (setting [7]), 7.2 µM; in the data set with HBV L180M (setting [9]), 8.5 µM; in the data set on HBV LM/MV (setting [11]) it was 7.8 µM; in the data set with HBV N236T (setting [14]) it was 32 µM.
